Each structure is given as a SMILES string. Values joined by “and” are separate entries in the source; they are usually repeats but may differ in a detail not shown here. Equal entries are not always repeated.

Type in all cases: functional
For assay [1], the system named is Rattus norvegicus. Kind of assay: Compound administered orally was tested for antiinflammatory activity in carrageenan-induced rat paw edema assay after 3.5 hours. Also on record: concentration or dose not given beside the values.
In assay [2] the test system is Rattus norvegicus. Kind of assay: Compound administered intraperitoneally was tested for antiinflammatory activity in carrageenan-induced rat paw edema assay after 3.5 hours. Also on record: concentration or dose not given beside the values.
Assay [3] relates to Rattus norvegicus. The experiment in a line: Compound administered intraperitoneally was tested for antiinflammatory activity in carrageenan-induced rat paw edema assay after 2 hours. Also on record: concentration or dose not given beside the values.
For assay [4], the system named is Rattus norvegicus. Kind of assay: Compound administered orally was tested for antiinflammatory activity in carrageenan-induced rat paw edema assay after 2 hours. Also on record: concentration or dose not given beside the values.
Assay [5] deals with Rattus norvegicus. The experiment in a line: Compound (50 mg/kg) administered intraperitoneally was tested for antiinflammatory activity in carrageenan induced rat paw edema assay after 3.5 hours.
The subject of assay [6] is Rattus norvegicus. Kind of assay: Compound (50 mg/kg) administered intraperitoneally was tested for antiinflammatory activity in carrageenan induced rat paw edema assay after 2 hours.
Assay [7] concerns Rattus norvegicus. Kind of assay: Compound (50 mg/kg) administered orally was tested for antiinflammatory activity in carrageenan-induced rat paw edema assay after 2 hours.

With `O=C(O)Cc1sc(-c2nsc3ccccc23)nc1-c1ccccc1`, the Inhibition in assay [1] worked out at 19%; in assay [2], 7%; in assay [3] it was 45%; in assay [4], 15%.

As to `CCOC(=O)Cc1sc(-c2nsc3ccccc23)nc1-c1ccccc1`, the Inhibition in assay [1] is 11%; in assay [2] it was less than 10%; in assay [3] it was less than 10%; in assay [4], less than 10%.

With `O=C(O)Cc1csc(-c2nsc3ccccc23)n1`, the Inhibition in assay [1] was 46%; in assay [2], 64%; in assay [3] it was 55%; in assay [4] it was 64%.

With `COc1ccc(-c2nc(-c3nsc4ccccc34)sc2CC(=O)O)cc1`, the Inhibition in assay [1] was 33%; in assay [2], 24%; in assay [3], 40%; in assay [4], 36%.

In the case of `O=C(O)Cc1sc(-c2nsc3ccccc23)nc1-c1ccc(Cl)cc1`, the Inhibition in assay [1] was 62% and 61%; in assay [5], 64%; in assay [2], 67%; in assay [6], 76%; in assay [7], 69%; in assay [3], 78%. In addition, in assay [4], the Inhibition was determined as 75%.

With `CC(C)Cc1ccc(C(C)C(=O)O)cc1` (configuration not stated) [IBUPROFEN], the Inhibition in assay [1] came to 65%; in assay [2] it was 74%; in assay [3], 70%; in assay [4], 62%.

As for `CCOC(=O)Cc1csc(-c2nsc3ccccc23)n1`, the Inhibition in assay [1] worked out at 11%; in assay [4], 18%.

Regarding `CCOC(=O)Cc1sc(-c2nsc3ccccc23)nc1-c1ccc(Cl)cc1`, the Inhibition is given as 22% in assay [1], 13% in assay [2], 24% in assay [3] and 34% in assay [4].

Regarding `CCOC(=O)Cc1sc(-c2nsc3ccccc23)nc1-c1ccc(OC)cc1`, the Inhibition in assay [1] came out at 29%; in assay [2], 30%; in assay [3], 34%; in assay [4], 20%.

For the origin of these results see ChEMBL document CHEMBL1130534, “Potent antiinflammatory 3-thiazole-4(5)-acetic acids of 1,2-benzisothiazole” (1997).
